The target in the assay is HPK1 (Homo sapiens, UniProt Q92918). Nature of the assay: HPK1 Biochemical Assay (ADP-Glo luminescence; low ATP 10 μM or high ATP 200 μM). Conditions: read-out: Biochemical Potency (low ATP).
Where [1] appears, read: HPK1 ADP-Glo assay, low ATP (10 μM ATP, 2 nM HPK1).

The text below walks through data of patent publication US12649751B2 (Arcus Biosciences, Inc., priority 2022, dated 2026).

pIC50: −log10 of the molar value. Where two headings read alike, the source gives them in different places.

Chain of HPK1 (Q92918 whole entry, species assumed): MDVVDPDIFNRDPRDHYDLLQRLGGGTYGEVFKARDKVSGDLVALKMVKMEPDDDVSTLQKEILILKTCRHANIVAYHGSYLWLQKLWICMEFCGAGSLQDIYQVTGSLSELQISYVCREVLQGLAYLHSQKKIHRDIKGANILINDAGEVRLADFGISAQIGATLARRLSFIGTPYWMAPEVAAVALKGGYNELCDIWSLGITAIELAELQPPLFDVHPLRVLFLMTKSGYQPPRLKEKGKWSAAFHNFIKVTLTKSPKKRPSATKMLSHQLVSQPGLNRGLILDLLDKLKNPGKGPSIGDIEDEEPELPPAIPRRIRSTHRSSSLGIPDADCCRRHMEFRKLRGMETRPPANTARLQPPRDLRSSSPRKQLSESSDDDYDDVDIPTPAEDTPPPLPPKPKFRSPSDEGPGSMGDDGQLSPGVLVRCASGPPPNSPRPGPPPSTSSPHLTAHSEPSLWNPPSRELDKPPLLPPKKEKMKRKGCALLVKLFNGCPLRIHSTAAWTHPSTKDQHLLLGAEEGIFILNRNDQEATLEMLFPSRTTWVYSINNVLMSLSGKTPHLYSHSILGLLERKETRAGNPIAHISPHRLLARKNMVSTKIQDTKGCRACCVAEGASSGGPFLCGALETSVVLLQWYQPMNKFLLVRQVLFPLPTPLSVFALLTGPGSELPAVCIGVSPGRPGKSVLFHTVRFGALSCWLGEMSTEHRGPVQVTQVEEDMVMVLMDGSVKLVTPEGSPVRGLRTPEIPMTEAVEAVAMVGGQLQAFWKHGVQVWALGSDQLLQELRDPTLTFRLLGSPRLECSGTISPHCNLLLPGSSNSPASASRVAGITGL

With `c1cc(-c2nc3cc(Nc4nccc(N5C[C@@H]6C[C@H]5CN6)n4)ncc3s2)ccn1` [Example 241, 4-[(1S,4S)-2,5-Diazabicyclo[2.2.1]heptan-2-yl]-N-[2-(pyridin-4-yl)-[1,3]thiazolo[5,4-c]pyridin-6-yl]pyrimidin-2-amine], under “2 nM HPK1, 10 μM ATP”, the pIC50 was over 7.00.

Regarding `Cc1cccnc1-c1nc2cc(Nc3nccc(N4C[C@@H](N)C[C@H]4CO)n3)ncc2s1` [Example 242, [(2S,4S)-4-amino-1-(2-{[2-(3-Methylpyridin-2-yl)-[1,3]thiazolo[5,4-c]pyridin-6-yl]amino}pyrimidin-4-yl)pyrrolidin-2-yl]methanol], the pIC50 (2 nM HPK1, 10 μM ATP) was 6.00 to 7.00.

For the molecule `CN(C)C(=O)c1cccc(-c2nc3cc(Nc4nccc(N5C[C@@H]6C[C@H]5CN6C)n4)ncc3s2)c1` [Example 243, N,N-Dimethyl-3-[6-({4-[(1S,4S)-5-methyl-2,5-diazabicyclo[2.2.1]heptan-2-yl]pyrimidin-2-yl}amino)-[1,3]thiazolo[5,4-c]pyridin-2-yl]benzamide], the pIC50 (2 nM HPK1, 10 μM ATP) is 6.00 to 7.00.

For `CN1C[C@@H]2C[C@H]1CN2c1ccnc(Nc2cc3nc(-c4cccc(S(C)(=O)=O)c4)sc3cn2)n1` [Example 244, N-[2-(3-Methanesulfonylphenyl)-[1,3]thiazolo[5,4-c]pyridin-6-yl]-4-[(1S,4S)-5-methyl-2,5-diazabicyclo[2.2.1]heptan-2-yl]pyrimidin-2-amine], the pIC50 (2 nM HPK1, 10 μM ATP) is 6.00 to 7.00.

As for `CN1C[C@@H]2C[C@H]1CN2c1ccnc(Nc2cc3nc(-c4cccc(C(=O)N5CCCC5)c4)sc3cn2)n1` [Example 245, 4-[(1S,4S)-5-Methyl-2,5-diazabicyclo[2.2.1]heptan-2-yl]-N-{2-[3-(pyrrolidine-1-carbonyl)phenyl]-[1,3]thiazolo[5,4-c]pyridin-6-yl}pyrimidin-2-amine], under “2 nM HPK1, 10 μM ATP”, the pIC50 is 6.00 to 7.00.

For `Cc1cccnc1-c1nc2cc(Nc3ccc(C4CCOCC4)c(N4C[C@@H]5C[C@H]4CN5)n3)ncc2s1` [Example 246, 6-[(1S,4S)-2,5-Diazabicyclo[2.2.1]heptan-2-yl]-N-[2-(3-methylpyridin-2-yl)-[1,3]thiazolo[5,4-c]pyridin-6-yl]-5-(oxan-4-yl)pyridin-2-amine], the pIC50 (2 nM HPK1, 10 μM ATP) is over 7.00.

Regarding `Cc1cccnc1-c1nc2cc(Nc3ccc(C4CCOCC4)c(N4C[C@@H]5C[C@H]4CN5C)n3)ncc2s1` [Example 247, 6-[(1S,4S)-5-Methyl-2,5-diazabicyclo[2.2.1]heptan-2-yl]-N-[2-(3-methylpyridin-2-yl)-[1,3]thiazolo[5,4-c]pyridin-6-yl]-5-(oxan-4-yl)pyridin-2-amine], under “2 nM HPK1, 10 μM ATP”, the pIC50 is over 7.00.

For `Cc1cccnc1-c1nc2cc(Nc3cc(C4CCOCC4)nc(N4C[C@@H]5C[C@H]4CN5)n3)ncc2s1` [Example 250, 2-[(1S,4S)-2,5-Diazabicyclo[2.2.1]heptan-2-yl]-N-[2-(3-methylpyridin-2-yl)-[1,3]thiazolo[5,4-c]pyridin-6-yl]-6-(oxan-4-yl)pyrimidin-4-amine], the pIC50 (2 nM HPK1, 10 μM ATP) was over 7.00.

Consider `Cc1cccnc1-c1nc2cc(Nc3ccc(C4CCOCC4)c(NCc4nccn4C)n3)ncc2s1` [Example 251, N2-[(1-Methyl-1H-imidazol-2-yl)methyl]-N6-[2-(3-methylpyridin-2-yl)-[1,3]thiazolo[5,4-c]pyridin-6-yl]-3-(oxan-4-yl)pyridine-2,6-diamine], for which the pIC50 (2 nM HPK1, 10 μM ATP) is over 7.00.

Take `CN1C[C@@H]2C[C@H]1CN2c1cncc(Nc2cc3nc(-c4ccnc(N5CC[C@@H](O)C5)c4)sc3cn2)n1` [Example 263, (3R)-1-{4-[6-({6-[(1S,4S)-5-Methyl-2,5-diazabicyclo[2.2.1]heptan-2-yl]pyrazin-2-yl}amino)-[1,3]thiazolo[5,4-c]pyridin-2-yl]pyridin-2-yl}pyrrolidin-3-ol]: for the setting “2 nM HPK1, 10 μM ATP”, the pIC50 is over 7.00.

`CN1C[C@@H]2C[C@H]1CN2c1nccc(Nc2cc3nc(-c4ccnc(N5CC[C@H](F)C5)c4)sc3cn2)n1` [Example 265, N-(2-{2-[(3S)-3-Fluoropyrrolidin-1-yl]pyridin-4-yl}-[1,3]thiazolo[5,4-c]pyridin-6-yl)-2-[(1S,4S)-5-methyl-2,5-diazabicyclo[2.2.1]heptan-2-yl]pyrimidin-4-amine]: for the setting “2 nM HPK1, 10 μM ATP”, the pIC50 was over 7.00.

For the molecule `CN1C[C@@H]2C[C@H]1CN2c1nccc(Nc2cc3nc(-c4ccnc(N5CC[C@H](O)C5)c4)sc3cn2)n1` [Example 266, (3S)-1-{4-[6-({2-[(1S,4S)-5-Methyl-2,5-diazabicyclo[2.2.1]heptan-2-yl]pyrimidin-4-yl}amino)-[1,3]thiazolo[5,4-c]pyridin-2-yl]pyridin-2-yl}pyrrolidin-3-ol], the pIC50 (2 nM HPK1, 10 μM ATP) is over 7.00.

Take `CN1C[C@@H]2C[C@H]1CN2c1nccc(Nc2cc3nc(-c4ccnc(N5CC[C@@H](F)C5)c4)sc3cn2)n1` [Example 267, N-(2-{2-[(3R)-3-Fluoropyrrolidin-1-yl]pyridin-4-yl}-[1,3]thiazolo[5,4-c]pyridin-6-yl)-2-[(1S,4S)-5-methyl-2,5-diazabicyclo[2.2.1]heptan-2-yl]pyrimidin-4-amine]: for the setting “2 nM HPK1, 10 μM ATP”, the pIC50 was over 7.00.

Turning to `Cc1cccnc1-c1nc2cc(Nc3ccc(N4CCC(F)(F)C4)c(C(C)(C)N)n3)ncc2s1` [Example 272, 6-(2-Aminopropan-2-yl)-5-(3,3-difluoropyrrolidin-1-yl)-N-[2-(3-methylpyridin-2-yl)-[1,3]thiazolo[5,4-c]pyridin-6-yl]pyridin-2-amine], the pIC50 (2 nM HPK1, 10 μM ATP) is over 7.00.

With `CCNCc1nc(Nc2cc3nc(-c4c(C)cccc4F)sc3cn2)ccc1N1CCC(F)(F)C1` [Example 279, 5-(3,3-Difluoropyrrolidin-1-yl)-6-[(ethylamino)methyl]-N-[2-(2-fluoro-6-methylphenyl)-[1,3]thiazolo[5,4-c]pyridin-6-yl]pyridin-2-amine], the pIC50 (2 nM HPK1, 10 μM ATP) is over 7.00.

Turning to `Cc1cccnc1-c1nc2cc(Nc3ccc(N4CCC(F)(F)C4)c(N4CCCC4)n3)ncc2s1` [Example 280, 5-(3,3-Difluoropyrrolidin-1-yl)-N-[2-(3-methylpyridin-2-yl)-[1,3]thiazolo[5,4-c]pyridin-6-yl]-6-(pyrrolidin-1-yl)pyridin-2-amine], for the setting “2 nM HPK1, 10 μM ATP”, the pIC50 is 5.30 to 6.00.

In the case of `Cc1cccnc1-c1nc2cc(Nc3ccc(N4CCC(F)(F)C4)c(N4C[C@@H]5C[C@H]4CN5C)n3)ncc2s1` [Example 281, 5-(3,3-Difluoropyrrolidin-1-yl)-6-[(1S,4S)-5-methyl-2,5-diazabicyclo[2.2.1]heptan-2-yl]-N-[2-(3-methylpyridin-2-yl)-[1,3]thiazolo[5,4-c]pyridin-6-yl]pyridin-2-amine], the pIC50 (2 nM HPK1, 10 μM ATP) was over 7.00.

`CN(C)Cc1nc(Nc2cc3nc(NC(=O)c4c(F)cccc4F)sc3cn2)ccc1N1CCOCC1` [Example 282, N-[6-({6-[(Dimethylamino)methyl]-5-(morpholin-4-yl)pyridin-2-yl}amino)-[1,3]thiazolo[5,4-c]pyridin-2-yl]-2,6-difluorobenzamide]: the pIC50 (2 nM HPK1, 10 μM ATP) was over 7.00.

In the case of `Cc1cccnc1-c1nc2cc(Nc3ccc(C4CCOCC4)c(C4CCNC4)n3)ncc2s1` (stereo not shown) [Example 283, N-[2-(3-Methylpyridin-2-yl)-[1,3]thiazolo[5,4-c]pyridin-6-yl]-5-(oxan-4-yl)-6-(pyrrolidin-3-yl)pyridin-2-amine], the pIC50 (2 nM HPK1, 10 μM ATP) is over 7.00.

With `Cc1ccc(N2C[C@@H]3C[C@H]2CN3C)nc1Nc1cc2nc(-c3ncccc3C)sc2cn1` [Example 284, 3-methyl-6-[(1S,4S)-5-methyl-2,5-diazabicyclo[2.2.1]heptan-2-yl]-N-[2-(3-methylpyridin-2-yl)-[1,3]thiazolo[5,4-c]pyridin-6-yl]pyridin-2-amine], the pIC50 (2 nM HPK1, 10 μM ATP) is 6.00 to 7.00.

With `CS(=O)(=O)Nc1cccc(-c2nc3cc(Nc4cccc(N5C[C@@H]6C[C@H]5CN6)n4)ncc3s2)c1` [Example 287, N-{3-[6-({6-[(1S,4S)-2,5-diazabicyclo[2.2.1]heptan-2-yl]pyridin-2-yl}amino)-[1,3]thiazolo[5,4-c]pyridin-2-yl]phenyl}methanesulfonamide], the pIC50 (2 nM HPK1, 10 μM ATP) is over 7.00.

In the case of `CNS(=O)(=O)c1cccc(-c2nc3cc(Nc4cccc(N5C[C@@H]6C[C@H]5CN6)n4)ncc3s2)c1` [Example 292, 3-[6-({6-[(1S,4S)-2,5-diazabicyclo[2.2.1]heptan-2-yl]pyridin-2-yl}amino)-[1,3]thiazolo[5,4-c]pyridin-2-yl]-N-methylbenzene-1-sulfonamide], the pIC50 (2 nM HPK1, 10 μM ATP) is over 7.00.

Turning to `CN(C)S(=O)(=O)c1cccc(-c2nc3cc(Nc4cccc(N5C[C@@H]6C[C@H]5CN6)n4)ncc3s2)c1` [Example 293], the pIC50 (2 nM HPK1, 10 μM ATP) is over 7.00.

Take `CN1C[C@@H]2C[C@H]1CN2c1nccc(Nc2cc3nc(-c4ccnc5c4cnn5C)sc3cn2)n1` [Example 294, N-(2-{1-methyl-1H-pyrazolo[3,4-b]pyridin-4-yl}-[1,3]thiazolo[5,4-c]pyridin-6-yl)-2-[(1 S,4S)-5-methyl-2,5-diazabicyclo[2.2.1]heptan-2-yl]pyrimidin-4-amine]: the pIC50 (2 nM HPK1, 10 μM ATP) is over 7.00.

As for `CC(C)(O)c1cc(-c2nc3cc(Nc4cnc(C5CCOCC5)c(N5C[C@@H]6C[C@H]5CN6)n4)ncc3s2)ccn1` [Example 303, 2-{4-[6-({6-[(1S,4S)-2,5-diazabicyclo[2.2.1]heptan-2-yl]-5-(oxan-4-yl)pyrazin-2-yl}amino)-[1,3]thiazolo[5,4-c]pyridin-2-yl]pyridin-2-yl}propan-2-ol], the pIC50 under setting [1] is over 7.00.

For `Cc1cccnc1-c1nc2cc(Nc3ccc4cccc(C(C)(C)N)c4n3)ncc2s1` [Example 306, 6-[8-(1-amino-1-methylethyl)-2-quinolylamino]-2-(3-methyl-2-pyridyl)-3-thia-1,5-diazaindene], the pIC50 under setting [1] was over 7.00.

`Cc1cccnc1-c1nc2cc(Nc3cccc(C4(O)C[C@@H]5CC4CN5)n3)ncc2s1` (stereo partly shown) [Example 314, 5-{6-[2-(3-methyl-2-pyridyl)-3-thia-1,5-diaza-6-indenylamino]-2-pyridyl}-2-azabicyclo[2.2.1]heptan-5-ol]: the pIC50 under setting [1] is over 7.00.

Consider `Cc1cccnc1-c1nc2cc(Nc3cc(C4CCNC4)nc(N4CCC(F)(F)C4)n3)ncc2s1` (stereo not shown) [Example 319, [2-(3,3-difluoro-1-pyrrolidinyl)-6-(3-pyrrolidinyl)-4-pyrimidinyl][2-(3-methyl-2-pyridyl)-3-thia-1,5-diaza-6-indenyl]amine], for which the pIC50 under setting [1] is 6.00 to 7.00.
